Measured values: PubChem BioAssay (NCI)
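Cultured in 96-well plates, cells were exposed to test compound for 48 hours across five concentrations. At the TGI there is no net growth.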

Assays:
Test in all cases: NCI anticancer screen, dose series, 48 h
[1] = test system: DU-145 prostate
[2] = test system: NCI/ADR-RES ovarian
[3] = test system: RPMI-8226 leukemia
[4] = test system: SF-295 CNS
[5] = test system: IGROV1 ovarian
[6] = test system: OVCAR-3 ovarian
[7] = test system: SK-MEL-5 melanoma
[8] = test system: NCI-H23 lung
[9] = test system: HOP-92 NSCLC
[10] = test system: OVCAR-5 ovarian
[11] = test system: CAKI-1 renal
[12] = test system: SF-268 CNS
[13] = test system: HCT-116 colon
[14] = test system: OVCAR-4 ovarian
[15] = test system: K-562 leukemia
[16] = test system: UACC-257 melanoma
[17] = test system: CCRF-CEM leukemia
[18] = test system: SK-MEL-28 melanoma
[19] = test system: SR leukemia
[20] = test system: NCI-H226 lung
[21] = test system: M14 melanoma
[22] = test system: SNB-19 CNS
[23] = test system: A549 NSCLC
[24] = test system: HOP-62 NSCLC
[25] = test system: U251 CNS
[26] = test system: HCC-2998 colon
[27] = test system: MDA-MB-231 breast
[28] = test system: OVCAR-8 ovarian
[29] = test system: SK-OV-3 ovarian
[30] = test system: KM12 colon
[31] = test system: NCI-H522 lung
[32] = test system: HCT-15 colon
[33] = test system: UACC-62 melanoma
[34] = test system: UO-31 renal
[35] = test system: MALME-3M melanoma
[36] = test system: BT-549 breast
[37] = test system: RXF 393 renal
[38] = test system: SF-539 CNS
[39] = test system: ACHN renal
[40] = test system: PC-3 prostate
[41] = test system: LOX IMVI melanoma
[42] = test system: COLO 205 colon
[43] = test system: SN12C renal
[44] = test system: SNB-75 CNS
[45] = test system: MOLT-4 leukemia
[46] = test system: HS 578T breast
[47] = test system: 786-0 renal
[48] = test system: TK-10 renal
[49] = test system: T-47D breast
[50] = test system: MDA-MB-435
[51] = test system: SW-620 colon
[52] = test system: EKVX NSCLC
[53] = test system: SK-MEL-2 melanoma
[54] = test system: MDA-N
[55] = test system: A498 renal
[56] = test system: HL-60(TB) leukemia
[57] = test system: NCI-H460 lung
[58] = test system: MCF7 breast
[59] = test system: HT29 colon

CCOC(=O)c1ccc(NC(=O)O/N=C(/Cl)C(C)C)cc1
TGI [1]: > 67.2 µM
TGI [2]: 37.5 µM
TGI [3]: 24.8 µM
TGI [4]: 34.8 µM
TGI [5]: 43 µM
TGI [6]: 11.5 µM
TGI [7]: 30 µM
TGI [8]: 47.7 µM
TGI [9]: 3.7 µM
TGI [10]: 32.9 µM
TGI [11]: 8.87 µM
TGI [12]: 34.8 µM
TGI [13]: 22.4 µM
TGI [14]: 28.4 µM
TGI [15]: 3.52 µM
TGI [16]: 32 µM
TGI [17]: 2.55 µM
TGI [18]: 31 µM
TGI [19]: 11.2 µM
TGI [20]: 50.2 µM
TGI [21]: 14.6 µM
TGI [22]: > 59.1 µM
TGI [23]: 47.7 µM
TGI [24]: 32.2 µM
TGI [25]: 36.3 µM
TGI [26]: 33.2 µM
TGI [27]: 39.7 µM
TGI [28]: 27.9 µM
TGI [29]: 33.4 µM
TGI [30]: 35.9 µM
TGI [31]: 3.85 µM
TGI [32]: 24.9 µM
TGI [33]: 38.2 µM
TGI [34]: 31.9 µM
TGI [35]: 8.49 µM
TGI [36]: 32.7 µM
TGI [37]: 30.6 µM
TGI [38]: 34.6 µM
TGI [39]: 27 µM
TGI [40]: 34.9 µM
TGI [41]: 9.65 µM
TGI [42]: 5.77 µM
TGI [43]: 44 µM
TGI [44]: 27.4 µM
TGI [45]: 4.63 µM
TGI [46]: 94.8 µM
TGI [47]: 16.5 µM
TGI [48]: 33.5 µM
TGI [49]: 6.62 µM
TGI [50]: 32.5 µM
TGI [51]: 4.32 µM
TGI [52]: 31.3 µM
TGI [53]: 29.3 µM
TGI [54]: 32.4 µM
TGI [55]: 28.4 µM
TGI [56]: 3.26 µM
TGI [57]: 38.3 µM
TGI [58]: 21.3 µM
TGI [59]: 48 µM
